Columns and labels:
DYRK1A = DYRK1A (Homo sapiens, UniProt Q13627); assay: Cellular DYRK1 autophosphorylation assay in U2-OS cells; format: cell-based; design: full-length, wild-type human DYRK1A (NM_001396) with an HA tag; expressed in transfected cells; host or cells: human U2-OS osteosarcoma cells, transient transfection of a pcDNA3.1 plasmid; details: U2-OS cells transfected with HA-tagged human DYRK1A, 5 hours exposure; read-out: IC50 (μM) P-Ser520-Dyrk1A -Cell assay
Description: On day 2, cells were exposed to a range of concentrations of the test compounds of the invention for 5 hours. […] The relative levels of phospho-Ser520-DYRK1A were assayed using either western blotting or the Mesoscale ELISA platform. For analysis by western blot, lysates were diluted into Laemmli sample buffer (Bio-Rad) containing 5% v/v β-mercaptoethanol, heated for 5 min at 95° C., and resolved on Tris-glycine gels or NuPage Bis-Tris gels (Novex; Invitrogen). Biotinylated molecular weight standards (Cell Signaling Technology) were included in all gels. Proteins were transferred to nitrocellulose membranes (Hybond, ECL; Amersham), which were blocked in Tris-buffered saline/0.1% tween 20 (TBST) containing 5% milk, and probed at 4° C. overnight with anti-phospho-Ser520-DYRK1A antibody (Eurogentec SE6974-75; 0.23 μg/ml in 5% BSA) or anti DYRK1A antibody (Abnova H00001859; 0.5 μg/ml in 5% milk). Peroxidase-conjugated secondary antibodies were diluted into 5% milk and applied to membranes for 1 h at 20° C. Chemiluminescence detection was performed using the ECL plus western blotting detection kit (Amersham) and was recorded on ECL plus hyperfilm (Amersham). Blots were scanned using the Bio-Rad GS-800 calibrated densitometer and quantitative analysis of western blots was performed using TotalLab software (Amersham). IC50 values for inhibition of phospho-Ser520-DYRK1A were calculated from dose-response curves plotting the ratio between phospho-Ser520-DYRK1A and total DYRK1A signals at each concentration. […] Anti-phospho-Ser520-DYRK1A antibody (Eurogentec SE6974-75; […]) and anti DYRK1A antibody (Abnova H00001859; 3 μg/ml) was then added for 1 hour at RT, followed by addition of Sulfa-TAG anti-rabbit detection antibody (ref MSD R32AB; 1 μg/ml) and Sulfa-TAG anti-mouse detection antibody (ref MSD R32-AC-1; 1 μg/ml). After a further 1 hour, Read Buffer was added and plates were read on the Sector Imager 2400 (Mesoscale). IC50 values for inhibition of phospho-Ser520-DYRK1A were calculated from dose-response curves.

[1] = biological target: T1, His-TEV-DYRK1A Kinase domain (aa127-485) (Homo sapiens, UniProt Q13627); assay: Kinase ADP assay (ADP Hunter), DYRK1A kinase domain; format: biochemical; details: 20 μM ATP
T1 construct: His-TEV-DYRK1A Kinase domain (aa127-485); His tag (N); TEV protease cleavage site (N)
Description: The enzyme reaction was conducted in assay buffer (pH 7.4), containing 15 mM Hepes; 20 mM NaCl; 1 mM EGTA; 10 mM MgCl2; 0.02% Tween20 and 0.1 mg/ml Bovine-y-globulin. Test compounds of the invention were added in reaction buffer in a range of concentrations for 10 minutes at 30° C. in the presence of 20 nM DYRK1A enzyme, 40 μM peptide substrate and 20 μM ATP. Detection reagents (DiscoveRx 90-0083), ADP Hunter Plus Reagent A and then ADP Hunter Plus Reagent B were added. After a following 20 minutes incubation at 30° C., ADP Hunter Plus Stop Solution was added. The fluorescence intensity was measured at 590 nm.

| IC50 (DYRK1A) [µM] | IC50 [1] [µM] | Structure (SMILES) |
| --- | --- | --- |
| 0.243 | 0.01 | Cc1nc2ccc(-c3cc(N)nc(N)c3)nc2n1CC1Cc2ccccc21 (single isomer, unassigned) [Example 113, 4-[3-(bicyclo[4.2.0]octa-1,3,5-trien-7-ylmethyl)-2-methyl-3H-imidazo[4,5-b]pyridin-5-yl]pyridine-2,6-diamine] |
| 0.075 | 0.006 | Cc1nc2ccc(-c3cc(N)nc(N)c3)nc2n1C[C@H](C)Oc1ccccc1Cl (single isomer, unassigned) [Example 117] |
| 0.105 | 0.004 | CC[C@@H](Cn1c(C)nc2ccc(-c3cc(N)nc(N)c3)nc21)Oc1ccccc1 (single isomer, unassigned) [Example 119] |
| 0.161 | 0.003 | CC[C@H](Cn1c(C)nc2ccc(-c3cc(N)nc(N)c3)nc21)Oc1ccccc1 (single isomer, unassigned) [Example 120] |
| 0.041 | 0.008 | Cc1nc2ccc(-c3cc(N)nc(N)c3)nc2n1C[C@@H](C)N(C)c1ccccc1 (single isomer, unassigned) [Example 121] |
| 0.122 | 0.02 | Cc1nc2ccc(-c3cc(N)nc(N)c3)nc2n1C[C@H](C)N(C)c1ccccc1 (single isomer, unassigned) [Example 122] |
| 0.082 | 0.01 | Cc1nc2ccc(-c3cc(N)nc(N)c3)nc2n1C[C@H](C)Oc1cccc(F)c1 (single isomer, unassigned) [Example 123] |
| 0.061 | 0.006 | Cc1nc2ccc(-c3cc(N)nc(N)c3)nc2n1C[C@@H](C)Oc1cccc(F)c1 (single isomer, unassigned) [Example 124] |
| 0.151 | 0.022 | COc1cccc(O[C@@H](C)Cn2c(C)nc3ccc(-c4cc(N)nc(N)c4)nc32)c1 (single isomer, unassigned) [Example 125] |
| 0.271 | 0.055 | COc1cccc(O[C@H](C)Cn2c(C)nc3ccc(-c4cc(N)nc(N)c4)nc32)c1 (single isomer, unassigned) [Example 126] |
| 0.163 | 0.037 | Cc1cccc(O[C@H](C)Cn2c(C)nc3ccc(-c4cc(N)nc(N)c4)nc32)c1 (single isomer, unassigned) [Example 128] |
| 0.13 | 0.037 | Cc1nc2ccc(-c3cc(N)nc(N)c3)nc2n1C[C@H](C)Oc1ccc(F)cc1 (single isomer, unassigned) [Example 129] |
| 0.045 | 0.016 | Cc1ccccc1O[C@@H](C)Cn1c(C)nc2ccc(-c3cc(N)nc(N)c3)nc21 (single isomer, unassigned) [Example 131] |
| 0.207 | 0.038 | Cc1ccccc1O[C@H](C)Cn1c(C)nc2ccc(-c3cc(N)nc(N)c3)nc21 (single isomer, unassigned) [Example 132] |
| 0.074 | 0.015 | Cc1nc2ccc(-c3cc(N)nc(N)c3)nc2n1C[C@H](C)Oc1ccccc1F (single isomer, unassigned) [Example 133] |
| 0.205 | 0.038 | Cc1nc2ccc(-c3cc(N)nc(N)c3)nc2n1C[C@@H](C)Oc1ccccc1F (single isomer, unassigned) [Example 134] |
| 0.098 | 0.016 | Cc1nc2ccc(-c3cc(N)nc(N)c3)nc2n1C[C@H](C)Sc1ccccc1 (single isomer, unassigned) [Example 135] |
| 0.247 | 0.028 | Cc1nc2ccc(-c3cc(N)nc(N)c3)nc2n1C[C@@H](C)Sc1ccccc1 (single isomer, unassigned) [Example 136] |

| IC50 (DYRK1A) [µM] | IC50 [1] [µM] | Structure (SMILES) |
| --- | --- | --- |
| 0.197 | 0.048 | Cc1nc2ccc(-c3cc(N)nc(N)c3)nc2n1[C@H]1C[C@H]1Cc1ccccc1 (single isomer, unassigned) [Example 137] |
| 0.1 | 0.052 | Cc1nc2ccc(-c3cc(N)nc(N)c3)nc2n1[C@H]1C[C@@H]1Cc1ccccc1 (single isomer, unassigned) [Example 138] |
| 0.024 | 0.007 | Cc1nc2ccc(-c3cc(N)nc(N)c3)nc2n1[C@@H]1C[C@@H]1Cc1ccccc1 (single isomer, unassigned) [Example 140] |
| 0.191 | 0.01 | COc1ccccc1O[C@@H](C)Cn1c(C)nc2ccc(-c3cc(N)nc(N)c3)nc21 (single isomer, unassigned) [Example 141] |
| 0.223 | 0.093 | Cc1nc2ccc(-c3cc(N)nc(N)c3)nc2n1C[C@H](C)Oc1cccc(Cl)n1 (single isomer, unassigned) [Example 176] |
| 0.237 | 0.023 | Cc1nc2ccc(-c3cc(N)nc(N)c3)nc2n1C[C@@H](C)Oc1ccc(F)cn1 (single isomer, unassigned) [Example 179] |
| 0.175 | 0.026 | Cc1nc2ccc(-c3cc(N)nc(N)c3)nc2n1C[C@H](C)Oc1ncccc1Br (single isomer, unassigned) [Example 182] |
| 0.181 | 0.065 | Cc1nc2ccc(-c3cc(N)nc(N)c3)nc2n1C[C@H](C)Oc1cccc(F)n1 (single isomer, unassigned) [Example 188] |
| 0.148 | 0.032 | Cc1nc2ccc(-c3cc(N)nc(N)c3)nc2n1C[C@H](C)Oc1ncccc1Cl (single isomer, unassigned) [Example 190] |
| 0.077 | 0.008 | Cc1nc2ccc(-c3cc(N)nc(N)c3)nc2n1CCc1ccc2c(c1)OCCO2 [Example 77, 4-{3-[2-(2,3-dihydro-1,4-benzodioxin-6-yl)ethyl]-2-methyl-3H-imidazo[4,5-b]pyridin-5-yl}pyridine-2,6-diamine] |
| 0.037 | 0.007 | Cc1nc2ccc(-c3cc(N)nc(N)c3)nc2n1CCc1ccccc1 [Example 83, 4-[2-methyl-3-(2-phenylethyl)-3H-imidazo[4,5-b]pyridin-5-yl]pyridine-2,6-diamine] |
| 0.113 | 0.019 | Cc1nc2ccc(-c3cc(N)nc(N)c3)nc2n1Cc1ccnc(F)c1 [Example 84, 4-{3-[(2-fluoropyridin-4-yl)methyl]-2-methyl-3H-imidazo[4,5-b]pyridin-5-yl}pyridine-2,6-diamine] |
| 0.143 | 0.016 | Cc1nc2ccc(-c3cc(N)nc(N)c3)nc2n1CCC1CCCO1 (stereo not shown) [Example 85, 4-{2-methyl-3-[2-(tetrahydrofuran-2-yl)ethyl]-3H-imidazo[4,5-b]pyridin-5-yl}pyridine-2,6-diamine] |
| 0.151 | 0.019 | Cc1nc2ccc(-c3cc(N)nc(N)c3)nc2n1CC1CC1C (stereo not shown) [Example 86, 4-{2-methyl-3-[(2-methylcyclopropyl)methyl]-3H-imidazo[4,5-b]pyridin-5-yl}pyridine-2,6-diamine] |
| 0.103 | 0.012 | CCC1(Cn2c(C)nc3ccc(-c4cc(N)nc(N)c4)nc32)CC1 [Example 88, 4-{3-[(1-ethylcyclopropyl)methyl]-2-methyl-3H-imidazo[4,5-b]pyridin-5-yl}pyridine-2,6-diamine] |
| 0.107 | 0.007 | COc1cccc2c1CCC(n1c(C)nc3ccc(-c4cc(N)nc(N)c4)nc31)C2 (stereo not shown) [Example 93, 4-[3-(5-methoxy-1,2,3,4-tetrahydronaphthalen-2-yl)-2-methyl-3H-imidazo[4,5-b]pyridin-5-yl]pyridine-2,6-diamine] |
| 0.104 | 0.016 | Cc1nc2ccc(-c3cc(N)nc(N)c3)nc2n1CC1CC1(C)C (stereo not shown) [Example 99, 4-{3-[(2,2-dimethylcyclopropyl)methyl]-2-methyl-3H-imidazo[4,5-b]pyridin-5-yl}pyridine-2,6-diamine] |

Reference: patent US20180273528A1 (LES LABORATOIRES SERVIER, priority 2015, published 2018)
